Here are results for 14 molecules from patent publication US12662489B2 (Sitryx Therapeutics Limited, priority 2023, dated 2026).

The subject of one assay is human CD4+ T cells. As to the kind of experiment: Human CD4+ T-cell proliferation assay (CFSE, CD3/28 beads). Conditions: read-out: Proliferation IC50.
Assay [1] has as its target T1, MTHFD1 recombinant human enzyme (Homo sapiens, UniProt P11586).
T1 sequence (P11586 2-291 limits assumed): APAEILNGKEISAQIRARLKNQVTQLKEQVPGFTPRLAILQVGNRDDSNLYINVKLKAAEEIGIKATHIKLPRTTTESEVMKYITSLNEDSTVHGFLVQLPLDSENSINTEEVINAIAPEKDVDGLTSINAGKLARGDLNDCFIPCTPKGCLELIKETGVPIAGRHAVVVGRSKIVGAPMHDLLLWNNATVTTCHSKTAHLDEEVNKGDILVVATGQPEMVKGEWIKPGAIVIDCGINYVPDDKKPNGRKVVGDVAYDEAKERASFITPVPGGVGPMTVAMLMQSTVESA
The assay can be described thus: MTHFD1 inhibition assay (NAD(P)H-Glo luminescence). Conditions: MTHFD1 IC50, recombinant human enzyme 200 nM, NADP, band.

Assay [2] addresses T2, MTHFD2 recombinant human enzyme (Homo sapiens, UniProt P13995).
T2 sequence (P13995 36-350): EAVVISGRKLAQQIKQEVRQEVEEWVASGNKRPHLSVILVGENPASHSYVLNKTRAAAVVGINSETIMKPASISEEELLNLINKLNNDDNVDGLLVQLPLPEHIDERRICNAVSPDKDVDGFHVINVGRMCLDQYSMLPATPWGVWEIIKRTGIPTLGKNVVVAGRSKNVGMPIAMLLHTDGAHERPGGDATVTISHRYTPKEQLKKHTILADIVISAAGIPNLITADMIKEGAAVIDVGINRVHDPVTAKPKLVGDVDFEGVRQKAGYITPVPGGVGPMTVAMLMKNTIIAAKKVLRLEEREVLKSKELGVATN
As to the kind of experiment: MTHFD2 inhibition assay (NAD(P)H-Glo luminescence). Conditions: for MTHFD1/MTHFD2 IC50 ratio: selectivity of MTHFD2 inhibition over MTHFD1, band.

Protocol for human CD4+ T cells: Cells were incubated at room temperature for 8 minutes in a rotator in the dark. 13 mL cRPMI was added to each tube and cells were centrifuged at 500×g for 4 minutes at room temperature before pellets were resuspended in 10 mL cRPMI. Cells were counted using the Auto2000 Cellometer and AO/PI viability stain and concentration adjusted to 0.6×10^6 cells/mL in cRPMI. […] Control wells were included for flow cytometry and edge wells were filled with 200 μL 1×dPBS. Cells were incubated at 37° C., 5% CO2 for 2 days before compound treatment. […] Cells were incubated at 37° C., 5% CO2 for a further 2 days prior to flow staining and supernatant harvest.
On the final day plates were centrifuged at 500×g for 4 minutes at room temperature. 125 μL of supernatants were transferred to a V bottom 96 well polystyrene plate and stored at −80° C. Plates were gently vortexed to disrupt the cell pellets before 125 μL 1×PBS was added to each well. Plates were centrifuged at 500×g for 4 minutes at room temperature and supernatants removed from the plates by aspirating. Plates were gently vortexed and 30 μL of live/dead stain (Invitrogen, L34975) in 1×dPBS was added and incubated for 15 minutes in the dark at 4° C. […] 100 μL of flow cytometry buffer was added and plates were centrifuged at 500×g for 4 minutes before supernatants were aspirated from the plates. Wells were resuspended in 200 μL flow cytometry buffer and plates stored at 4° C. before being run on the flow cytometer.
Data was analysed using FlowJo and the compensation matrix applied to all samples. The gates were set using unstained and unstimulated samples.

For the molecule `[2H]C([2H])([2H])Oc1cc(C(=O)N2CCc3c(c(=O)oc4c(C)c(N5CCN(C)[C@@H](COC)C5)cc(Cl)c34)C2)c(F)cc1C(=O)NS(=O)(=O)N1CC2CC2C1` (stereo partly drawn) [Example 327, N-((3-azabicyclo[3.1.0]hexan-3-yl)sulfonyl)-4-(10-chloro-8-((R)-3-(methoxymethyl)-4-methylpiperazin-1-yl)-7-methyl-5-oxo-1,3,4,5-tetrahydro-2H-chromeno[3,4-c]pyridine-3-carbonyl)-5-fluoro-2-(methoxy-d3)benzamide], the IC50 with human CD4+ T cells lay within 100 to 1000 nM; in assay [1], 100 to 1000 nM; in assay [2], 1 to 10 nM. Moreover, in assay [2], the “MTHFD1/MTHFD2 IC50 ratio” value is recorded as “J (>30)”.
Take `COC[C@H]1CN(c2cc(C)c3c4c(c(=O)oc3c2C)CN(C(=O)c2ccc(C(=O)NS(=O)(=O)C3(C)CC3)c(N(C)C)c2F)CC4)CCN1C` [Example 136, (R)-2-(dimethylamino)-3-fluoro-4-(8-(3-(methoxymethyl)-4-methylpiperazin-1-yl)-7,10-dimethyl-5-oxo-1,3,4,5-tetrahydro-2H-chromeno[3,4-c]pyridine-3-carbonyl)-N-((1-methylcyclopropyl)sulfonyl)benzamide]: the IC50 lay in the range of 30 to 100 nM in the assay on human CD4+ T cells, 100 to 1000 nM in assay [1] and 10 to 100 nM in assay [2]. The “MTHFD1/MTHFD2 IC50 ratio” value in assay [2] is given as “H (>9.0 to 30)”.
For `COC[C@H]1CN(c2cc(C)c3c4c(c(=O)oc3c2C)CN(C(=O)c2cc(N(C)C)c(C(=O)NS(=O)(=O)N3CCC[C@H](OC)C3)cc2F)CC4)CCN1C` [Example 281, 2-(dimethylamino)-5-fluoro-4-(8-((R)-3-(methoxymethyl)-4-methylpiperazin-1-yl)-7,10-dimethyl-5-oxo-1,3,4,5-tetrahydro-2H-chromeno[3,4-c]pyridine-3-carbonyl)-N-(((S)-3-methoxypiperidin-1-yl)sulfonyl)benzamide], in that order: 1 to 10 nM, 100 to 1000 nM, 10 to 100 nM and “H (>9.0 to 30)”.
For the molecule `COC[C@H]1CN(c2cc(C)c3c4c(c(=O)oc3c2C)CN(C(=O)c2cc(N(C)C)c(C(=O)NS(=O)(=O)N3CC[C@@H](F)C3)cc2F)CC4)CCN1C` [Example 314, 2-(dimethylamino)-5-fluoro-N-(((R)-3-fluoropyrrolidin-1-yl)sulfonyl)-4-(8-((R)-3-(methoxymethyl)-4-methylpiperazin-1-yl)-7,10-dimethyl-5-oxo-1,3,4,5-tetrahydro-2H-chromeno[3,4-c]pyridine-3-carbonyl)benzamide], the IC50 was in the range of 1 to 10 nM in the assay with human CD4+ T cells, 100 to 1000 nM in assay [1] and 1 to 10 nM in assay [2]. Further, the “MTHFD1/MTHFD2 IC50 ratio” value in assay [2] is reported as “H (>9.0 to 30)”.
Regarding `COC[C@H]1CN(c2cc(C)c3c4c(c(=O)oc3c2C)CN(C(=O)c2cc(F)c(C(=O)NS(=O)(=O)N3CCCC3)cc2OC)CC4)CCN1C` [Example 266, (R)-2-fluoro-5-methoxy-4-(8-(3-(methoxymethyl)-4-methylpiperazin-1-yl)-7,10-dimethyl-5-oxo-1,3,4,5-tetrahydro-2H-chromeno[3,4-c]pyridine-3-carbonyl)-N-(pyrrolidin-1-ylsulfonyl)benzamide], the results for the IC50 (in the assay on human CD4+ T cells; in assay [1]; in assay [2]) were 1000 to 5000 nM, 100 to 1000 nM and 1 to 10 nM, respectively. Further, in assay [2], the “MTHFD1/MTHFD2 IC50 ratio” value was “J (>30)”.
For `[2H]C([2H])([2H])Oc1cc(C(=O)N2CCc3c(c(=O)oc4c(C)c(N5CCN(C)[C@@H](COC)C5)cc(C)c34)C2)c(F)cc1C(=O)NS(=O)(=O)N1CC2CC2C1` (stereo partly drawn) [Example 251, N-((3-azabicyclo[3.1.0]hexan-3-yl)sulfonyl)-5-fluoro-2-(methoxy-d3)-4-(8-((R)-3-(methoxymethyl)-4-methylpiperazin-1-yl)-7,10-dimethyl-5-oxo-1,3,4,5-tetrahydro-2H-chromeno[3,4-c]pyridine-3-carbonyl)benzamide], in that order: 30 to 100 nM, 100 to 1000 nM, 1 to 10 nM and “J (>30)”.
The corresponding values for `COC[C@H]1CN(c2ccc3c4c(c(=O)oc3c2C)CN(C(=O)c2cc(N(C)C)c(C(=O)NS(=O)(=O)N3CC5CC5C3)cc2F)CC4)CCN1C` (stereo partly drawn) [Example 181, N-((3-azabicyclo[3.1.0]hexan-3-yl)sulfonyl)-2-(dimethylamino)-5-fluoro-4-(8-((R)-3-(methoxymethyl)-4-methylpiperazin-1-yl)-7-methyl-5-oxo-1,3,4,5-tetrahydro-2H-chromeno[3,4-c]pyridine-3-carbonyl)benzamide] are 10 to 30 nM, 100 to 1000 nM, 10 to 100 nM and “H (>9.0 to 30)”.
The corresponding values for `COC[C@H]1CN(c2cc(C)c3c4c(c(=O)oc3c2C)CN(C(=O)c2ccc(C(=O)NS(=O)(=O)N3CC5CCCCC5C3)cc2)CC4)CCN1C` (stereo partly drawn) [Example 211, 4-(8-((R)-3-(methoxymethyl)-4-methylpiperazin-1-yl)-7,10-dimethyl-5-oxo-1,3,4,5-tetrahydro-2H-chromeno[3,4-c]pyridine-3-carbonyl)-N-((octahydro-2H-isoindol-2-yl)sulfonyl)benzamide] are 1000 to 5000 nM, 1000 to 5000 nM, 10 to 100 nM and “H (>9.0 to 30)”.
Turning to `COC[C@H]1CN(c2cc(C)c3c4c(c(=O)oc3c2C)CN(C(=O)c2ccc(C(=O)NS(=O)(=O)N3CCCC3)c(OC(F)F)c2F)CC4)CCN1C` [Example 171, (R)-2-(difluoromethoxy)-3-fluoro-4-(8-(3-(methoxymethyl)-4-methylpiperazin-1-yl)-7,10-dimethyl-5-oxo-1,3,4,5-tetrahydro-2H-chromeno[3,4-c]pyridine-3-carbonyl)-N-(pyrrolidin-1-ylsulfonyl)benzamide], the IC50 lay in the range of 100 to 1000 nM in the assay with human CD4+ T cells, 100 to 1000 nM in assay [1] and 10 to 100 nM in assay [2]. Also, the “MTHFD1/MTHFD2 IC50 ratio” value in assay [2] is “G (^ 3 to 9.0)”.
In the case of `COC[C@H]1CN(c2cc(C)c3c4c(c(=O)oc3c2C)CN(C(=O)c2cc(N(C)C)c(C(=O)NS(=O)(=O)N3C5CCC3CC5)cc2F)CC4)CCN1C` [Example 255, (R)-N-((7-azabicyclo[2.2.1]heptan-7-yl)sulfonyl)-2-(dimethylamino)-5-fluoro-4-(8-(3-(methoxymethyl)-4-methylpiperazin-1-yl)-7,10-dimethyl-5-oxo-1,3,4,5-tetrahydro-2H-chromeno[3,4-c]pyridine-3-carbonyl)benzamide], the IC50 lay in the range of 10 to 30 nM in the assay on human CD4+ T cells, 1000 to 5000 nM in assay [1] and 1 to 10 nM in assay [2]. The “MTHFD1/MTHFD2 IC50 ratio” value in assay [2] is “J (>30)”.
For `COC[C@H]1CN(c2cc(C)c3c4c(c(=O)oc3c2C)CN(C(=O)c2ccc(C(=O)NS(=O)(=O)N3C5CCC3CC5)c(C)c2F)CC4)CCN1C` [Example 241], in that order: 100 to 1000 nM, 100 to 1000 nM, 10 to 100 nM and “H (>9.0 to 30)”.
The corresponding values for `COC[C@H]1CN(c2cc(Cl)c3c4c(c(=O)oc3c2C)CN(C(=O)c2cc(F)c(C(=O)NS(=O)(=O)N3CCCC3)cc2C)CC4)CCN1C` [Example 310, (R)-4-(10-chloro-8-(3-(methoxymethyl)-4-methylpiperazin-1-yl)-7-methyl-5-oxo-1,3,4,5-tetrahydro-2H-chromeno[3,4-c]pyridine-3-carbonyl)-2-fluoro-5-methyl-N-(pyrrolidin-1-ylsulfonyl)benzamide] are 30 to 100 nM, 1000 to 5000 nM, 10 to 100 nM and “J (>30)”.
For `COC[C@H]1CN(c2cc(C)c3c4c(c(=O)oc3c2C)CN(C(=O)c2cc(N(C)C)c(C(=O)NS(=O)(=O)N(C)C3CC3)cc2F)CC4)CCN1C` [Example 257, (R)-N-(N-cyclopropyl-N-methylsulfamoyl)-2-(dimethylamino)-5-fluoro-4-(8-(3-(methoxymethyl)-4-methylpiperazin-1-yl)-7,10-dimethyl-5-oxo-1,3,4,5-tetrahydro-2H-chromeno[3,4-c]pyridine-3-carbonyl)benzamide], in that order: 1 to 10 nM, 100 to 1000 nM, 1 to 10 nM and “J (>30)”.
Turning to `COC[C@H]1CN(c2cc(C)c3c4c(c(=O)oc3c2C)CN(C(=O)c2cc(N(C)C)c(C(=O)NS(=O)(=O)N3CC[C@H](F)C3)cc2F)CC4)CCN1C` [Example 254, 2-(dimethylamino)-5-fluoro-N-(((S)-3-fluoropyrrolidin-1-yl)sulfonyl)-4-(8-((R)-3-(methoxymethyl)-4-methylpiperazin-1-yl)-7,10-dimethyl-5-oxo-1,3,4,5-tetrahydro-2H-chromeno[3,4-c]pyridine-3-carbonyl)benzamide], the IC50 in the assay with human CD4+ T cells was in the range of 10 to 30 nM; in assay [1], 100 to 1000 nM; in assay [2], 1 to 10 nM. In addition, the “MTHFD1/MTHFD2 IC50 ratio” value in assay [2] was “J (>30)”.
